Data as given in patent publication US20250375453A1, “HIGH-EFFICIENCY ANTIMICROBIAL COMPOSITION” (CM4CURE S.A., priority 2023, published 2025).

Legend:
[1] = test system: Vancomycin-resistant Enterococcus faecalis (VRE, ATCC BAA-2573); experiment: Synergy checkerboard assay / broth micro-dilution MIC (ISO 20776-1 with modifications); assay type: cell-based
Protocol: • 1. Preparation of the inoculum of Vancomycin-resistant Enterococcus faecalis (VRE, ATCC BAA-2573). Inoculum is prepared by suspension of 1 colony of bacteria (medium size colony from Tryptic Soy agar plate) in 3 ml of Tryptic Soy broth (TSB) using a 200 μL tip. The solution is mixed by vortexing and incubated at 37° C. overnight (19-24 hours) under shaking at 200 rpm. • 2. Preparation of the Antimicrobial dilution on the day of the experiment. Stock solutions are performed with distilled water for all antimicrobial compound except for Fluometacyl (ethanol). Dilution for each condition is made in Mueller-Hinton broth (NMB). 50p of APIs dilution is added to wells of a 96 wells microplate (each condition in duplicate-triplicate). • Antimicrobial compounds were prepared as follows: • Fluometacyl (F) (4 mg/mL in 100% EtOH) served as a master stock. To obtain the final concentration of 40 μg/ml in the bacterial suspension, initial stock of 160 μg/ml in Mueller-Hinton broth (MHB) was prepared and further 2-fold diluted using the following serial dilution scheme: • (1): 40 μg/ml (160 μg/ml, prepared in MHB) • (2): 20 μg/ml (80 μg/ml, dilution in MHB) • (3): 10 μg/ml (40 μg/ml, dilution in MHB) • (4): 5 μg/ml (20 μg/ml, dilution in MHB) • (5): 2.5 μg/ml (10 μg/ml, dilution in MHB) • (6): 1.25 μg/ml (5 μg/ml, dilution in MHB) • Chlorhexidine acetate (CHLX) (2 mg/mL in H2O) served as a master stock. To obtain the final concentration of 4 μg/ml in the bacterial suspension, initial stock of 16 μg/ml in MHB was prepared and further 2-fold diluted using the following serial dilution scheme: • (1): 8 μg/ml (32 μg/ml, prepared in MHB) • (2): 4 μg/ml (16 μg/ml, prepared in MHB) • (3): 2 μg/ml (8 μg/ml, dilution in MHB) • (4): 1 μg/ml (4 μg/ml, dilution in MHB) • (5): 0.5 μg/ml (2 μg/ml, dilution in MHB) • (6): 0.25 μg/ml (1 μg/ml, dilution in MHB) • 3. Preparation of VRE. Before the experiment, the VRE bacterial suspension (incubated overnight) is diluted 100× in TSB in 4 mL of TSB and grown at 37 C under agitation 200 rpm until OD600 reaches 0.08 to 0.16. This corresponds to the cell density […]. 100 μl of the bacterial solution (OD600 ranging from 0.08 to 0.16) is added to 9 900 μL of Mueller-Hinton Broth (MHB) (dilution 1:100). • 4. Preparation of a 96-well plate. 100 μL of bacteria (diluted 1:100 in MHB from the point 3) is added in each well of the plate containing 100 μL of the serially diluted APIs alone or in combinations as shown in the p. 2. Bacteria should be added into the 96-well plate within the 30 minutes following the preparation of the bacteria in order to maintain the same number of CFU/mL. Plates are incubated at 37° C. overnight. A condition with MHB medium alone or bacteria without APIs will also be added as the control conditions. Since fluometacyl is dissolved in ethanol, extra conditions are added: MHB with ethanol in order to assess the effect of ethanol on bacterial growth. • Following scheme is applied: • 2 antibacterial compounds: 50 μL of a antimicrobial 1+50 μL of a antimicrobial 2+100 μL of bacterial suspension in MHB • 1 antibacterial compound: 50 μL of a drug 1/2+50 μL of MHB+100 μL of bacterial suspension in MHB • Growth control: 100 μL MHB (+/−Ethanol)+100 μL of bacterial suspension • BLANK: MHB only • 5. CFU counting of the initial challenge inoculum. 10 μL of the solution of the bacteria used as the positive control is diluted in 10 mL of TSB. 100 μL is spread on Tryptic Soy agar (done in triplicate) and incubated at 37° C. overnight • 6. Results. The MIC is the lowest concentration that inhibits completely the visible growth of the bacteria (no turbidity in a well). The OD at 600 nm is also recorded for each well as back-up data.
Synergy evaluation resulting from the comparison between activity of the combination of the antimicrobial compounds and their individual activities was represented as the Fractional Inhibitory Concentration (FIC) index value. […]

[2] = test system: Candida albicans (CA); experiment: MIC in monotherapy and in combination therapy (ISO standard 20776-1); assay type: cell-based
Excerpt: (§1) Summary of MIC Values for Fluometacyl (FLC)+Chlorhexidine (CHX) Tested Against MRSA, Enterococcus faecalis (VRE), Pseudomonas aeruginosa (PA) and Candida albicans (CA).
(§2) By Minimum Inhibitory Concentration (MIC) one means the lowest concentration of antimicrobial that prevents visible growth of a microorganism (determined according to ISO standard 20776-1).
(§3) This finds an implication in combining many known antimicrobials together rather than discovering new chemical entities.

[3] = test system: Pseudomonas aeruginosa (PA); experiment: as above; assay type: cell-based
Excerpt: as §1, §2, §3

[4] = test system: Staphylococcus aureus (MRSA); experiment: as above; assay type: cell-based
Excerpt: as §1, §2, §3

[5] = test system: Staphylococcus aureus MRSA; conditions: cited from earlier work
[6] = test system: Enterococcus faecalis; conditions: cited from earlier work
[7] = test system: Streptococcus mutans; conditions: cited from earlier work
[8] = test system: Lactobacillus reuteri; conditions: cited from earlier work
[9] = test system: Fusobacterium nucleatum; conditions: cited from earlier work
[10] = test system: Klebsiella spp.; conditions: cited from earlier work
[11] = test system: Candida albicans; conditions: cited from earlier work
[12] = test system: Candida krusei; conditions: cited from earlier work
[13] = test system: Aspergillus spp.; conditions: cited from earlier work
[14] = chlorhexidine base; cited from earlier work
[15] = MIC combination / MIC monotherapy

Compound: [H]/N=C(\N/C(=N/[H])NCCCCCCNC(=N)NC(=N)Nc1ccc(Cl)cc1)Nc1ccc(Cl)cc1 [Chlorhexidine, chlorhexidine]
- MIC ([1]; Enterococcus faecalis, antimicrobial alone, read-out: MIC Monotherapy (X)): 4000 µg/mL
- Ratio Y/X [1, 15]: 0.125-0.5
- MIC combination dual therapy (Y) ([1]; in FLC + CHX combination): 500 to 2000 µg/mL
- MIC ([2]; Candida albicans, antimicrobial alone, read-out: MIC Monotherapy (X)): 4000 µg/mL
- Ratio Y/X [2, 15]: 0.5
- MIC combination dual therapy (Y) ([2]; in FLC + CHX combination): 2000 µg/mL
- Ratio Y/X [3, 15]: 0.25
- MIC ([3]; Pseudomonas aeruginosa, antimicrobial alone, read-out: MIC Monotherapy (X)): 16000 µg/mL
- MIC combination dual therapy (Y) ([3]; in FLC + CHX combination): 4000 µg/mL
- Ratio Y/X [4, 15]: 0.25-0.5
- MIC ([4]; Staphylococcus aureus, MRSA, antimicrobial alone, read-out: MIC Monotherapy (X)): 1000 µg/mL
- MIC combination dual therapy (Y) ([4]; in FLC + CHX combination): 250 to 500 µg/mL
- MIC of chlorhexdine [5]: 2 to 8 µg/mL
- MIC of chlorhexdine [6]: 4 to 16 µg/mL
- MIC of chlorhexdine [7]: 0.9 to 4 µg/mL
- MIC of chlorhexdine [8]: 0.125 to 4 µg/mL
- MIC of chlorhexdine [9]: 1.8 µg/mL
- MIC of chlorhexdine [10]: 8 to 16 µg/mL
- MIC of chlorhexdine [11]: 1 to 16 µg/mL
- MIC of chlorhexdine [12]: 150 µg/mL
- MIC of chlorhexdine [13]: 8 to 64 µg/mL
- solubility in water [14]: insoluble in water
